System: NCI-N87 cells
Assay: In vitro assay of warhead, cell viability by MTS
Assay type: cell-based
Conditions: Homo sapiens, 168 h, 7 days incubation, mean of three independent replicates
Protocol: Solid test material was dissolved in DMSO to a 2 mM stock solution, from which eight serial dilutions were made at a 1:10 ratio in DMSO and stored at −20° C. until use.
Adherent NCI-N87 cells were washed with D-PBS and detached with Trypsin-EDTA, cell density and viability were then determined in duplicate by Trypan blue exclusion assay using an automated cell counter (LUNA-II™). Cell suspension was diluted to 1×10^5 cells/ml in growth media (RPMI 1640 with Glutamax+10% (v/v) HyClone™ Fetal Bovine Serum) and vortexed before dispensing 2 mL per well into sterile 3 mL polypropylene plates. Warhead dilutions were then dispensed into the appropriate wells at 10 μl/well and mixed by repeat pipetting. […] At the end of the incubation period time (7 days), cell viability was measured by CellTiter 96 ™ aqueous One (MTS) assay, which was dispensed at 20 μl/well and incubated for 4 hours at 37° C., 5% CO2. Plates were then read on an EnVision™ Multi-label Plate Reader (Perkin Elmer) using absorbance at 490 nm.
Cell survival percentage was calculated from the mean absorbance of the 2 replicate wells for each sample, compared to the mean absorbance in the two control wells treated with DMSO only (100%). The IC50 was determined by fitting each data set to sigmoidal dose-response curves with a variable slope using the non-linear curve fit algorithm on the GraphPad Prism software (San Diego, Calif.). […]

With CC[C@@]1(O)C(=O)OCc2c1cc1n(c2=O)Cc2c-1nc1ccc(N)c3c1c2CCC3 [Compound I11, (S)-4-amino-9-ethyl-9-hydroxy-1,2,3,9,12,15-hexahydro-10H,13H-benzo[de]pyrano[3′,4′:6,7]indolizino[1,2-b]quinoline-10,13-dione] the IC50 was 0.385 nM.

Reference: patent US11446292B2, “Compounds and conjugates thereof” (MedImmune Limited, priority 2019, dated 2022)
